From article PMC6736568, “Discovery of Novel Anti-cryptosporidial Activities From Natural Products by in vitro High-Throughput Phenotypic Screening” (Frontiers in Microbiology, 2019)
Like-named read-outs stand apart in the source and are kept apart here.

Experiments:
Cryptosporidium parvum = assay: qRT-PCR assay of the growth of C. parvum in vitro in HCT-8 host cells (primary and secondary screening, EC50); assay type: cell-based; conditions: Cryptosporidium parvum, HCT-8; for inhibition at 10 µM: primary screening at 10 uM, read-out: Inhibition (%); for inhibition at 3.3 µM: secondary screening at 3.3 uM, read-out: % Inhibition (3.3 uM)
in vitro = conditions: for cytotoxicity at 41 h, 10 µM: human
[1] = primary screening at 10 uM, treated vs control

Compound | Hs18S ΔCT (HCT-8 host cells (Hs18S); human, 41 h, 10 μM) | inhibition at 10 µM (Cryptosporidium parvum) | cytotoxicity at 41 h, 10 µM (in vitro) | Hs18S ΔCT (HCT-8 host cells (Hs18S); [1]) | cytotoxicity at 10 µM (in vitro) | inhibition at 3.3 µM (Cryptosporidium parvum)
O=C1C=C2C=C[C@@H]3C[C@@]2(O1)[C@H]1CCCCN31 [SECURININE] |  | 9.24% |  | 0.05 | 3.6% | 
O=c1c(-c2ccc(O)cc2)coc2cc(O)cc(O)c12 [GENISTEIN] |  | 6.85% |  | 0.20 | 12.7% | 
C[C@@H]1C(=O)O[C@H]2C[C@@]34[C@H]5C[C@@H](C(C)(C)C)[C@]36[C@@H](OC(=O)[C@@H]6O)O[C@@]4(C(=O)O5)[C@]21O [GINKGOLIDE A] |  | 37.5% |  | 0.10 | 6.6% | 
C=C1C(=O)O[C@@H]2C[C@@]3(C)CCC[C@H](C)C3=C[C@H]12 [HELENINE] | 0.10 | -20% | 6.4% |  |  | 
COc1ccc2c(c1)[nH]c1c(C)nccc12 [HARMINE] |  | 82.2% |  | 0.49 | 28.6% | -62%
C=C1C(N)CC2CC1C2(C)C (stereo not drawn) [3-AMINO-beta-PINENE] | 0.42 | 19.2% | 25.3% |  |  | 
C=CC[C@@H]1/C=C(\C)C[C@H](C)C[C@H](OC)[C@H]2O[C@@](O)(C(=O)C(=O)N3CCCC[C@H]3C(=O)O[C@H](/C(C)=C/[C@@H]3CC[C@@H](O)[C@H](OC)C3)[C@H](C)[C@@H](O)CC1=O)[C@H](C)C[C@@H]2OC [TACROLIMUS] | 0.16 | 75.6% | 10.4% |  |  | -14%
COc1cc2c(c(OC)c1OC)-c1ccc(=O)c(O)cc1[C@@H](NC(C)=O)CC2 [COLCHICEINE] |  | 13.7% |  | -0.43 | -34.9% | 
O=C(O)/C=C/C=C/c1ccc2c(c1)OCO2 [PIPERIC ACID] |  | 0.79% |  | -0.02 | -1.7% | 
O=C(/C=C/C=C/c1ccc2c(c1)OCO2)N1CCCCC1 [PIPERINE] |  | -12.1% |  | 0.03 | 2.1% | 
O=Cc1ccccc1O[C@@H]1O[C@H](CO)[C@@H](O)[C@H](O)[C@H]1O [HELICIN] | 0.07 | 18.6% |  |  | 4.7% | 
C[C@H]1CC[C@]2(NC1)O[C@H]1C[C@H]3[C@@H]4CC[C@H]5C[C@@H](O[C@@H]6O[C@H](CO)[C@H](O[C@@H]7O[C@H](CO)[C@@H](O)[C@H](O[C@@H]8OC[C@@H](O)[C@H](O)[C@H]8O)[C@H]7O[C@@H]7O[C@H](CO)[C@@H](O)[C@H](O)[C@H]7O)[C@H](O)[C@H]6O)CC[C@]5(C)[C@H]4CC[C@]3(C)[C@H]1[C@@H]2C [TOMATINE] |  | 92.9% |  | 0.04 | 2.7% | 25%
COc1cc(/C=C/C(=O)O)cc(OC)c1OC [SINAPIC ACID METHYL ETHER] |  | -20.8% |  | 0.66 | 36.6% | 
O=C(O)/C=C(\CC(=O)O)C(=O)O [ACONITIC ACID] | -0.01 | -3.59% | -0.7% |  |  | 
COc1cc(OC)c2c(=O)cc(-c3ccccc3)oc2c1 [CHRYSIN DIMETHYL ETHER] |  | 90.3% |  | -0.12 | -8.6% | -69%
CN(C)Cc1c[nH]c2ccccc12 [GRAMINE] |  | -43.9% | -33.5% | -0.42 |  | 
C[C@@H]1CC[C@@]2(OC1)O[C@H]1[C@@H](O)[C@H]3[C@@H]4CC[C@H]5C[C@@H](O[C@@H]6O[C@H](CO)[C@H](O[C@@H]7O[C@H](CO)[C@@H](O)[C@H](O[C@@H]8OC[C@@H](O)[C@H](O)[C@H]8O)[C@H]7O[C@@H]7O[C@H](CO)[C@H](O)[C@H](O[C@@H]8O[C@H](CO)[C@@H](O)[C@H](O)[C@H]8O)[C@H]7O)[C@H](O)[C@H]6O)[C@H](O)C[C@]5(C)[C@H]4CC[C@]3(C)[C@H]1[C@@H]2C [DIGITONIN] |  | -16.6% |  | -0.12 | -8.8% | 
COc1cc(O)c2c(=O)cc(-c3ccc(O)cc3)oc2c1 [GENKWANIN] |  | -9.13% |  | -0.83 | -77.7% | 
C=CCN=C=S [ALLYLISOTHIOCYANATE] | 0.28 | 25.7% | 17.7% |  |  | 
O=c1cc(-c2ccccc2)oc2cc(O)ccc12 [7-HYDROXYFLAVONE] |  | 9.24% |  | 0.17 | 10.8% | 
Oc1cc(O)c2c(c1)O[C@H](c1cc(O)c(O)c(O)c1)[C@H](O)C2 [EPIGALLOCATECHIN] | 0.15 | 7.01% | 9.9% |  |  | 
CC(=O)O[C@]1(C)CC[C@@]23C[C@@H]1C(C)(C)[C@@H]2CC[C@H]3C [CEDRYL ACETATE] |  | 9.38% |  | 0.05 | 3.6% | 
CC(=O)O[C@H]1C(=O)[C@@]2(C)[C@H]([C@H](OC(=O)c3ccccc3)[C@]3(O)C[C@H](O)C(C)=C1C3(C)C)[C@]1(OC(C)=O)CO[C@@H]1C[C@@H]2O [BACCATIN III] |  | 1.76% |  | 0.08 | 5.2% | 
CC1=C2C(=CO[C@H](C)[C@H]2C)C(O)=C(C(=O)O)C1=O [CITRININ] |  | 8.51% |  | 0.13 | 8.3% | 
O=C(O)c1cc(O)c2c(c1)[C@H]([C@H]1c3cc(C(=O)O)cc(O)c3C(=O)c3c(O[C@@H]4O[C@H](CO)[C@@H](O)[C@H](O)[C@H]4O)cccc31)c1cccc(O[C@@H]3O[C@H](CO)[C@@H](O)[C@H](O)[C@H]3O)c1C2=O [SENNOSIDE A] |  | -4.71% |  | -0.08 | -6.1% | 

Second part, led by results:

Hs18S ΔCT (HCT-8 host cells (Hs18S); human, 41 h, 10 μM) | Compound | inhibition at 10 µM (Cryptosporidium parvum) | cytotoxicity at 41 h, 10 µM (in vitro) | Hs18S ΔCT (HCT-8 host cells (Hs18S); [1]) | cytotoxicity at 10 µM (in vitro) | inhibition at 3.3 µM (Cryptosporidium parvum)
-0.09 | COc1cc2c(cc1OC)-c1cc3ccc(OC)c(OC)c3c[n+]1CC2 [PALMATINE CHLORIDE] | 9.29% | -6.1% |  |  | 
-0.18 | Cc1cc(O)c(C=O)c2c1C(=O)Oc1c(C)c(O)c3c(c1O2)C(O)OC3=O (stereo not drawn) [NORSTICTIC ACID] | -20.8% | -13.4% |  |  | 
0.08 | COc1cc(C)c2c(c1C=O)Oc1c(c(C)c(O)c3c1C(O)OC3=O)OC2=O (stereo not drawn) [STICTIC ACID] | -0.45% | 5.5% |  |  | 
0.09 | O=C(/C=C/c1ccccc1)c1ccc(O)cc1O [2',4'-DIHYDROXYCHALCONE] | 6.05% | 6.1% |  |  | 
-0.04 | O=c1c(O)c(-c2ccccc2)oc2ccccc12 [3-HYDROXYFLAVONE] | 92.4% | -2.7% |  |  | -28%
0.01 | O=c1c(-c2cc(O)c(O)c(O)c2)coc2cc(O)c(O)c(O)c12 [IRIGENOL] | -13.4% | 0.7% |  |  | 
-0.39 | CC(C)=CCc1c(O)cc2oc(C)cc(=O)c2c1O [PEUCENIN] | 2.08% | -31.3% |  |  | 
-0.04 | O=C(/C=C/c1ccc(O)c(O)c1)O[C@H](Cc1ccc(O)c(O)c1)C(=O)O [ROSMARINIC ACID] | 37.3% | -3.1% |  |  | 
0.06 | COc1cc(O)c(C)c(O)c1 [2,6-DIHYDROXY-4-METHOXYTOLUENE] | 19% | 4.4% |  |  | 
0.18 | COc1ccc(-c2coc3cc(O)ccc3c2=O)c(OC)c1 [2'-METHOXYFORMONETIN] | 12.9% | 11.5% |  |  | 
-0.21 | O=c1oc2ccccc2cc1O [3-HYDROXYCOUMARIN] | -39.6% | -15.7% |  |  | 
0.10 | COc1cc(O)cc(OC)c1OC [ANTIAROL] | 8.48% | 6.9% |  |  | 
0.31 | COC(=O)c1c(C)cc(O)cc1O [METHYL ORSELLINATE] | -34.8% | 19.6% |  |  | 
0.09 | C=CC(C1=CC(=O)C(OC)=CC1=O)c1ccc(O)cc1 (stereo not drawn) [DALBERGIONE, 4-METHOXY-4'-HYDROXY-] | 30.3% | 6.1% |  |  | 
-0.26 | C[C@@H]1O[C@@H](O[C@H]2[C@H](Oc3cc(O)c4c(=O)cc(-c5ccc(O)cc5)oc4c3)O[C@H](CO)[C@@H](O)[C@@H]2O)[C@H](O)[C@H](O)[C@H]1O [RHOIFOLIN] | 54.6% | -20% |  |  | 
-0.01 | O=c1c(O)cccc2cc(O)c(O)c(O)c12 [PURPUROGALLIN] | -12.6% | -0.7% |  |  | 
0.17 | Cc1cc(O)c2c(c1)C(=O)c1cccc(O)c1C2=O [CHRYSOPHANOL] | -71.6% | 11.4% |  |  | 
-0.36 | CC(C)c1c(O)ccc2c1CC[C@H]1C(C)(C)CCC[C@]21C [TOTAROL] | -9.45% | -28.4% |  |  | 
-0.13 | CC1=CCc2c(cc3oc(C)cc(=O)c3c2O)OC1 [PTAEROXYLIN] | -20.7% | -9.7% |  |  | 
0.09 | C/C(=C\C(=O)OCCCCCCCCC(=O)O)C[C@@H]1OC[C@H](C[C@@H]2O[C@H]2[C@@H](C)[C@H](C)O)[C@@H](O)[C@H]1O [MUPIROCIN] | 45.6% | 5.8% |  |  | 
-0.16 | CCc1ccc2c(O)c3c(cc2c1C(=O)OC)C(=O)c1c(O)ccc(O)c1C3=O [BISANHYDRORUTILANTINONE] | 24.5% | -12% |  |  | 
0.23 | O=C(O)[C@]1(O)C[C@@H](O)[C@@H](O)[C@H](O)C1 [QUINIC ACID] | 69.4% | 14.6% |  |  | -6%
